Here are results for eleven compounds from patent publication US20250326722A1 (SHANGHAI HANSOH BIOMEDICAL CO., LTD., priority 2022, published 2025).

Broadly, the Kd is a measure of binding affinity in units of concentration. The IC50 is the point on the concentration scale where inhibition reaches its midpoint. A word on the MRT: it is the average time that molecules of a dose stay in the body.

The target of one data set is PCSK9 protein (Homo sapiens (Human), UniProt Q8NBP7). Briefly: Binding experiment: surface plasmon resonance (SPR) binding to PCSK9 protein. From the text: • 1. Experimental objective: To detect the action of compounds to bind PCSK9 protein by a conventional surface plasmon resonance (SPR) method.
Data set [1] addresses PCSK9 secreted by HepG2 cells (Homo sapiens (Human), UniProt Q8NBP7). Kind of data set: Effect on the concentration of PCSK9 secreted by HepG2 cells (ELISA). It counts as cell-based. The conditions noted are these: 48 hours incubation, read-out: Inhibitory activity on PCSK9, IC50.
Data set [2] deals with LDLR level in HepG2 cells. Kind of data set: Effect on the LDLR level in HepG2 cells (ELISA). Format: cell-based, human. Set-up: concentration or dose not given beside the values. As to conditions: 48 hours incubation, LDLR ELISA of lysate. How it is done: To detect the effect of the compounds on the LDLR protein level.
Envision (PE-Cisbio: 2105-0020), centrifuge (Eppendorf: 5810R), water purifier (THERMO: Pacific T II+Micropure), plate washer (Thermo: […] VERSA), and microplate shaker (Thermo: 88882006)
• 1) HepG2 cell strain was cultured in the complete culture medium at 37° C., 5% CO2 to 70-90% confluence. • 2) The cells were digested and resuspended in the experimental culture medium, inoculation was performed at 25,000 cells/well/200 μL in a 96-well cell culture plate, and the cells were cultured at 37° C., 5% CO2 for 20-24 hours. • 3) The culture medium was removed from the cell culture plate, and the cell culture plate was washed once by adding 200 μl of the experimental culture medium to each well. • 4) Preparation of positive control compound and compound to be tested: the positive control compound and the compound to be tested were diluted on the compound plate. • 5) The diluted compound was added to the cell culture plate at 250 μL per well and incubated at 37° C. and 5% CO2 for 48 hours. • 6) The cell culture medium was removed, the cells were washed with PBS, and 50 μL of the cell lysis buffer and the protein inhibitor were added. • 7) After centrifugation, the lysate was removed and the sample was stored for later use. • 8) Preparation of standard curve: corresponding volumes of Dilution buffer were successively added to respective standard tubes, and the standard was diluted in series by taking the corresponding volume from the original tube or the last concentration tube. • 9) Preparation of washing liquid: 10× Wash buffer was diluted into 1× with Milli-Q for later use. • 10) According to the standard curve wells and sample wells set according to a plate map, 80 μL/well of the corresponding standards and samples were added to the wells, with 2 replicate wells. A well in which no standard was added was used as a background value well. A self-adhesive seal was applied, the plate was placed on a plate shaker at room temperature, gently shaken, uniformly mixed, and incubated for 2 hours. • 11) The plate was placed on the plate washer, the washing liquid was set to 350 μL per well, and the plate was washed 4 times repeatedly. • 12) 200 μL of Human LDLR conjugate was added, a self-adhesive seal was applied, and the plate was placed on the plate shaker, well mixed uniformly, and incubated for 2 hours. • 13) The plate was placed on the plate washer, the washing liquid was set to 350 μL per well, and the plate was washed 4 times repeatedly. • 14) 200 μL/well of Substrate solution was added, and the plate was placed in the dark, applied with a self-adhesive seal, placed on the plate shaker, well mixed uniformly, and incubated for 20 minutes. • 15) 50 μL/well of Stop solution was added and mixed uniformly over 20 min. • 16) The optical density (OD) value in each well was measured in sequence at a wavelength of 450 nm by the microplate reader.
After the OD values were read by the microplate reader, the OD value of the 0-concentration standard in the standard group was subtracted from the OD values of the standards, control group, and samples to obtain the actual OD values for these wells. A standard curve was plotted with Graphpad and the concentration of the sample was calculated. If the dilution was performed during the sample detection, the calculated sample concentration was necessarily multiplied by the corresponding dilution ratio in the final calculation, which was the actual concentration of the sample. Concentration increase %=(actual concentration in control-actual concentration in sample)/actual concentration in control*100.
(ELISA stands for enzyme-linked immunosorbent assay.)

Data set [3] can be described thus: Pharmacokinetic determination in mice (plasma). Format: in vivo, C57BL/6J mice. As to conditions: C57 mice, PO administration, 5 mpk; for AUC(0-inf) / half-life / MRT / Cmax: male, C57BL/6J, mouse, 5 mg/kg; for AUC(0-inf): read-out: Area under the curve AUC0-∞; for half-life: read-out: Half-life t1/2 (converted); for MRT: read-out: Mean residence time MRT; for Cmax: read-out: Plasma concentration Cmax. In a few lines: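 Male C57BL/6J mice (n=3 per route), fasted overnight, got 5 mg/kg PO in 10% Solutol HS15 or 1 mg/kg IV in 5% DMSO/10% Solutol HS15/85% PBS. Orbital blood was sampled at 0.083 (IV only), 0.25, 0.5, 1, 2, 4, 8 and 24 h. EDTA-K2 plasma was quantified by LC-MS/MS for PK parameters.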

In data set [4] the test system is hyperlipidemia animal model of B6-hPCSK9 transgenic mice. Kind of data set: In vivo pharmacodynamics in hyperlipidemia animal model of B6-hPCSK9 transgenic mice. Details: species or system B6-hPCSK9 transgenic C57 mice. The conditions noted are these: PO administration, Day 14, high-fat feed. As to the method:
The compounds of the present disclosure were evaluated for in vivo pharmacodynamics in a hyperlipidemia animal model of B6-hPCSK9 transgenic mice.
B6-hPCSK9 transgenic C57 mice, 6-8 weeks old, male, purchased from Jiangsu GemPharmatech Co., Ltd.
After delivery to a barrier system, the animals were given one week for acclimatization and began to feed on the high-fat feed. The body weight and feed weight were weighed once a week, and the body weight and food intake thereof were recorded.
a. The animals were grouped by a random grouping method.
c. According to the grouping results, administration with the test drug was started (mode of administration: oral administration; administration volume: 10 mL/kg; frequency of administration: once/day or single administration; administration cycle: 21 days; vehicle: 10% Solutol HS 15/90% Saline).
d. After the test drug was administered, the body weight and feed weight were weighed twice a week and blood was taken once a week.
e. The data was processed with software such as Excel. […] PCSK9 in plasma was detected by ELISA.

PCSK9 secreted by HepG2 cells, sequence (Q8NBP7 153-692): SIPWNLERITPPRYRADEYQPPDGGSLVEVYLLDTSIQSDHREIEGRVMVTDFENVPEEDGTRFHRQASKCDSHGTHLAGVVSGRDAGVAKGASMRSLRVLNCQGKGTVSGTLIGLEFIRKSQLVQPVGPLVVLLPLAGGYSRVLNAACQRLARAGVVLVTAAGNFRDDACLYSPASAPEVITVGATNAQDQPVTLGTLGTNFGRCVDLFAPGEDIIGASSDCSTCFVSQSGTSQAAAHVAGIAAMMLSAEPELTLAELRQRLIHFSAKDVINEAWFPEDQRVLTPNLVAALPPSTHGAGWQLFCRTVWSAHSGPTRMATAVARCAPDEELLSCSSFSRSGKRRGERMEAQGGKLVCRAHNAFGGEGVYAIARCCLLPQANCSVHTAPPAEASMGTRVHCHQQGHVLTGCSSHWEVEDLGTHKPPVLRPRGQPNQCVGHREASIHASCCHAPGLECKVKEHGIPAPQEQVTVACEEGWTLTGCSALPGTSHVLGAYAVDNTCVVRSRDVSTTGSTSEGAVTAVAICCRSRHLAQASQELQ
PCSK9 secreted by HepG2 cells, sequence (Q8NBP7 31-152 partner): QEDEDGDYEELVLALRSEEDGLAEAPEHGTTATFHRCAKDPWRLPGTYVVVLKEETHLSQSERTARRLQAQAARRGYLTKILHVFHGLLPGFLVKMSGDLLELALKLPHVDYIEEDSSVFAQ
PCSK9 protein, sequence (Q8NBP7 153-692): as the sequence (Q8NBP7 153-692) above

With `O=c1ccccn1-c1ccc(N[C@H]2CC[C@H](Nc3ncc4cccn4n3)C2)nc1` [Example 20, 6′-(((1S,3S)-3-(pyrrolo[2,1-f][1,2,4]triazin-2-ylamino)cyclopentyl)amino)-2H-[1,3′-bipyridinyl]-2-one], the Kd on PCSK9 protein came out at 0.0024 µM. Besides, in data set [1], the IC50 came out at 14 µM. The same compound gave an LDLR expression level in data set [2] of 302%.
In the case of `O=C1c2ncccc2CN1c1ccc(N[C@H]2CC[C@H](Nc3ncc(OC(F)F)cn3)C2)nc1` [Example 57, 6-(6-(((1S,3S)-3-((5-(difluoromethoxy)pyrimidin-2-yl)amino)cyclopentyl)amino)pyridin-3-yl)-5,6-dihydro-7H-pyrrolo[3,4-b]pyridin-7-one], in data set [3], the Time to peak tmax stood at 1 h, the AUC(0-inf) was 41500 ng·h/mL, the half-life was 5.9 h and the MRT is 4.8 h. Moreover, in data set [3], the Cmax amounted to 9960 ng/mL. The “LDL-C change, Day 14” value in data set [4] (3 mpk) was −46.22%. Moreover, the IC50 in data set [1] was 22 µM.
Regarding `O=C1c2cccnc2CN1c1ccc(N[C@H]2CC[C@H](Nc3ncc(OC(F)F)cn3)C2)nc1` [Example 77, 6-(6-(((1S,3S)-3-((5-(difluoromethoxy)pyrimidin-2-yl)amino)cyclopentyl)amino)pyridin-3-yl)-6,7-dihydro-5H-pyrrolo[3,4-b]pyridin-5-one], in data set [3], the Time to peak tmax turned out to be 0.25 h, the AUC(0-inf) is 8080 ng·h/mL, the half-life was 4.3 h and the mean residence time MRT was 2.1 h. The Cmax in data set [3] stood at 4720 ng/mL. The compound also came in with a Kd on PCSK9 protein of 0.0015 µM. The compound further registered an LDLR expression level in data set [2] of 117%.
With `Fc1cnn2c(-c3ccc(N[C@H]4CC[C@H](Nc5ncc(OC(F)F)cn5)C4)nc3)cccc12` [Example 102, (1S,3S)—N1-(5-(difluoromethoxy)pyrimidin-2-yl)-N^3-(5-(3-fluoropyrazolo[1,5-a]pyridin-7-yl)pyridin-2-yl)cyclopentane-1,3-diamine], the IC50 in data set [1] was 6.3 µM. The same compound showed an LDLR expression level in data set [2] of 215%.
On to `O=C1c2ncccc2CN1c1ccc(N[C@H]2CC[C@H](Nc3nc4cc(F)ccn4n3)C2)nc1` [Example 129, 6-(6-(((1S,3S)-3-((7-fluoro-[1,2,4]triazolo[1,5-a]pyridin-2-yl)amino)cyclopentyl)amino)pyridin-3-yl)-5,6-dihydro-7H-pyrrolo[3,4-b]pyridin-7-one], for which, in data set [3], the Time to peak tmax is 0.5 h, the AUC(0-inf) is 9640 ng·h/mL, the half-life was 3.9 h and the MRT worked out at 1.5 h. Further, in data set [3], the Cmax came to 4880 ng/mL. Further, in data set [4] (5 mpk), the “LDL-C change, Day 14” value is −21.98%. In addition, in data set [1], the IC50 amounted to 7.4 µM.
Take `O=C1c2ncccc2CN1c1ccc(N[C@H]2CC[C@H](Nc3ncc(C(F)(F)F)cn3)C2)nc1` [Example 134, 6-(6-(((1S,3S)-3-((5-(trifluoromethyl)pyrimidin-2-yl)amino)cyclopentyl)amino)-3-yl)-5,6-dihydro-7H-pyrrolo[3,4-b]pyridin-7-one]: in data set [3], the Time to peak tmax came to 2 h, the AUC(0-inf) was 76600 ng·h/mL, the half-life was 4.1 h and the MRT was found to be 5.8 h. The Cmax in data set [3] worked out at 9360 ng/mL. For the same compound, the “LDL-C change, Day 14” value in data set [4] (5 mpk) is listed as −60.65%. The IC50 in data set [1] was found to be 2.2 µM.
With `Cc1cc2c(cn1)CN(c1ccc(N[C@H]3CC[C@H](Nc4nc5cc(F)ccn5n4)C3)nc1)C2=O` [Example 147, 2-(6-(((1S,3S)-3-((7-fluoro-[1,2,4]triazolo[1,5-a]pyridin-2-yl)amino)cyclopentyl)amino)pyridin-3-yl)-6-methyl-2,3-dihydro-1H-pyrrolo[3,4-c]pyridin-1-one], in data set [3], the Time to peak tmax came to 2 h, the AUC(0-inf) is 52000 ng·h/mL, the half-life is 4.4 h and the MRT was determined as 4.8 h. For the same compound, in data set [3], the Cmax was determined as 8230 ng/mL. Besides, the “LDL-C change, Day 14” value in data set [4] (3 mpk) was −23.20%. Further, the IC50 in data set [1] was 24.1 µM.
As to `O=C1c2cc(C(F)(F)F)ncc2CN1c1ccc(N[C@H]2CC[C@H](Nc3nc4cc(F)ccn4n3)C2)nc1` [Example 151, 2-(6-(((1S,3S)-3-((7-fluoro-[1,2,4]triazolo[1,5-a]pyridin-2-yl)amino)cyclopentyl)amino)pyridin-3-yl)-6-(trifluoromethyl)-2,3-dihydro-1H-pyrrolo[3,4-c]pyridin-1-one], in data set [3], the Time to peak tmax was 2 h, the AUC(0-inf) is 97700 ng·h/mL, the half-life is 15.1 h and the MRT came out at 19 h. In data set [3], the Cmax amounted to 7420 ng/mL. Also, the 50% inhibitory concentration (IC50) in data set [1] amounted to 1.3 µM. In data set [2], this compound registered an LDLR expression level of 138%.
In the case of `O=C1c2cccc(C(F)(F)F)c2CN1c1ccc(N[C@H]2CC[C@H](Nc3ncc(C(F)(F)F)nn3)C2)nc1` [Example 158, 4-(Trifluoromethyl)-2-(6-(((1S,3S)-3-((6-(trifluoromethyl)-1,2,4-triazin-3-yl)amino)cyclopentyl)amino)pyridin-3-yl) isoindolin-1-one], in data set [3], the Time to peak tmax was 4 h, the AUC(0-inf) stood at 22400 ng·h/mL, the half-life was 16.2 h and the MRT amounted to 19.5 h. For the same compound, the Cmax in data set [3] came to 2320 ng/mL. Besides, the “LDL-C change, Day 14” value in data set [4] (10 mpk) is listed as −28.97%. Also, in data set [1], the IC50 came out at 1.9 µM.
As to `O=C1c2nc(C(F)(F)F)ccc2CN1c1ccc(N[C@H]2CC[C@H](Nc3ncc(C4CC4)nn3)C2)nc1` [Example 159, 6-(6-(((1S,3S)-3-((6-cyclopropyl-1,2,4-triazin-3-yl)amino)cyclopentyl)amino)pyridin-3-yl)-2-(trifluoromethyl)-5,6-dihydro-7H-pyrrolo[3,4-b]pyridin-7-one], in data set [1], the IC50 is 5.9 µM. This compound returned an LDLR expression level in data set [2] of 105%.
In the same order, the values of `CC(C)(C)c1ccc2c(n1)C(=O)N(c1ccc(N[C@H]3CC[C@H](Nc4nc5cc(F)ccn5n4)C3)nc1)C2` [Example 164, 2-(Tert-butyl)-6-(6-(((1S,3S)-3-((7-fluoro-[1,2,4]triazolo[1,5-a]pyridin-2-yl)amino)cyclopentyl)amino)pyridin-3-yl)-5,6-dihydro-7H-pyrrolo[3,4-b]pyridin-7-one] are 2.8 µM and 254%.
